Experimental data from patent US20220363681A1, “OXO SIX-MEMBERED CYCLOPYRIMIDINE COMPOUND, PREPARATION METHOD AND MEDICAL USE THEREOF” (GenFleet Therapeutics (Shanghai) Inc., priority 2019, published 2022).

How the values were obtained:
[1] = system: Kras G12C mutant NCI-H358 cells; experiment: Cell proliferation inhibition experiment, 3D cell model, CellTiter-Glo (H358); assay type: cell-based, human; details: NCI-H358, 2% FBS RPMI-1640, 384-well sphere plate, cultured 5 days with compound
Procedure: (§1) NCI-H358 was a human non-small cell lung cancer cell line with Kras G12C mutation, cultured in 10% FBS RPMI-1640 medium; A549 was a human lung adenocarcinoma cell line with Kras G12S mutation, cultured in 10% FBS F-12K medium. The cells in the logarithmic growth phase was taken, digested with trypsin EDTA, collected and counted, and H358 was adjusted to 1.8E4 cells/ml using 2% FBS RPMI-1640 medium, and A549 was adjusted to 8.9E3 cells/ml using 2% FBS F-12K medium; 800 (45 μl) H358 or 400 (45 μl) A549 cells were seeded in a 384-well sphere plate respectively, cultured overnight to establish a 3D cell model. DMSO was used to prepare 1000× compound 3.16-fold gradient concentration stock solution, and 2% FBS medium was used to dilute 100-fold to 10× compound stock solution. On the second day after cell seeding, 5 μl 10× compound stock solution was added to each cell culture well, the final concentration was 1×, and DMSO content was 0.1%. DMSO was used as the experimental control (control) and 2% FBS medium as the blank control (blank). After the compound and cells were added and cultured for 5 days, 25 μl CellTiter-Glo working solution was added to each well, mixed at 400 rpm and incubated for 30 minutes. After standing 30 minutes at room temperature, 40 μl of the mixture was transfered to a 384-well plate with a non-transparent white bottom, the luminescence chemiluminescence value was read, and the cells proliferation inhibition rate IR (%)=(RLU control-RLU compound)/(RLU control-RLU blank)×100% was calculated, Prism 6 four-parameter method was used to fit the compound's gradient dilution concentration and the corresponding cell proliferation inhibition rate, and the IC50 value was calculated.

[2] = system: A549 cells (Kras G12S mutation); experiment: Cell proliferation inhibition experiment, 3D cell model, CellTiter-Glo (A549); assay type: cell-based, human; details: A549, 2% FBS F-12K, 384-well sphere plate, cultured 5 days with compound
Procedure: as §1

Row | SMILES | IC50 [1] | IC50 ([1]; Homo sapiens, NCI-H358, 120 h) | IC50 ([2]; Homo sapiens, A549, 120 h) | further results
1 | C=CC(=O)N1CCN(c2nc(OC[C@@H]3CCCN3C)nc3c(OC4CC4)c(-c4c(C)ccc5[nH]ncc45)c(Cl)cc23)CC1 (single isomer, unassigned) [Compound Z7B] | 6 nM |  |  | IC50 [2]: > 1000 nM
2 | C=CC(=O)N1CCN(c2nc(OC3CCN(C)CC3)nc3c(OC4CC4)c(-c4c(C)ccc5[nH]ncc45)c(Cl)cc23)CC1 (single isomer, unassigned) [Compound Z12A] | 9 nM |  |  | IC50 [2]: > 1000 nM
3 | C=CC(=O)N1CCN(c2nc(OC3CCN(C)CC3)nc3c(OC4CC4)c(-c4c(C)ccc5[nH]ncc45)c(Cl)cc23)CC1 (single isomer, unassigned) [Compound Z12B] | 390 nM |  |  | IC50 [2]: > 5000 nM
4 | C=CC(=O)N1CCN(c2nc(OC[C@@H]3CCCN3C)nc3c(OC4CC4)c(-c4c(C)ccc5[nH]ncc45)c(Cl)cc23)[C@@H](C)C1 (single isomer, unassigned) [Compound Z28B] | 4 nM |  |  | IC50 [2]: > 1000 nM
5 | C=CC(=O)N1CCN(c2nc(O[C@@H]3CCN(C)C3)nc3c(OC4CC4)c(-c4c(C)ccc5[nH]ncc45)c(Cl)cc23)CC1 (single isomer, unassigned) [Compound Z39B] | 12 nM |  |  | IC50 [2]: > 30000 nM
6 | C=CC(=O)N1CCN(c2nc(O[C@H]3CCN(C)C3)nc3c(OC4CC4)c(-c4c(C)ccc5[nH]ncc45)c(Cl)cc23)CC1 (single isomer, unassigned) [Compound Z40A] | 12 nM |  |  | IC50 [2]: > 30000 nM
7 | C=CC(=O)N1CCN(c2nc(OC[C@@H]3CCCN3C)nc3c(OC4CC4)c(-c4c(C)ccc5[nH]ncc45)c(OC)cc23)[C@@H](C)C1 (single isomer, unassigned) [Compound Z48B] |  | 10 nM | > 10000 nM | 
8 | C=CC(=O)N1CCN(c2nc(OC[C@@H]3CCCN3C)nc3c(OC4CC4)c(-c4c(C)ccc5[nH]ncc45)c(OC)cc23)C[C@@H]1CC#N (single isomer, unassigned) [Compound Z50A] |  | 50 nM | > 10000 nM | 
9 | C=CC(=O)N1CCN(c2nc(OC3CCN(C)CC3)nc3c(OC4CC(F)(F)C4)c(-c4c(C)ccc5[nH]ncc45)c(Cl)cc23)CC1 [Compound Z1, 1-(4-(6-chloro-8-(3,3-difluorocyclobutoxy)-7-(5-methyl-1H-indazol-4-yl)-2-((1-methylpiperidin-4-yl)oxy)quinazolin-4-yl)piperazin-1-yl)prop-2-en-1-one] |  | 108 nM | > 1000 nM | 
10 | C=CC(=O)N1CCN(c2nc(OC3CCN(C)CC3)nc3c(OC4CCOCC4)c(-c4c(C)ccc5[nH]ncc45)c(Cl)cc23)CC1 [Compound Z2, 1-(4-(6-chloro-7-(5-methyl-1H-indazol-4-yl)-2-((1-methylpiperidin-4-yl)oxy)-8-((tetrahydro-2H-pyran-4-yl)oxy)quinazolin-4-yl)piperazin-1-yl)prop-2-en-1-one] |  | 126 nM | > 1000 nM | 
11 | C=CC(=O)N1CCN(c2nc(OC3CCN(C)CC3)nc3c(OC4CCC4)c(-c4c(C)ccc5[nH]ncc45)c(Cl)cc23)CC1 [Compound Z3, 1-(4-(6-chloro-8-cyclobutoxy-7-(5-methyl-1H-indazol-4-yl)-2-((1-methylpiperidin-4-yl)oxy)quinazolin-4-yl)piperazin-1-yl)prop-2-en-1-one] |  |  |  | IC50 ([1]; Homo sapiens, 120 h): 60 nM; IC50 ([2]; Homo sapiens, 120 h): > 1000 nM
12 | C=CC(=O)N1CCN(c2nc(OC[C@@H]3CCCN3C)nc3c(OC4CC(F)(F)C4)c(-c4c(C)ccc5[nH]ncc45)c(Cl)cc23)CC1 [Compound Z4, 1-(4-(6-chloro-8-(3,3-difluorocyclobutoxy)-7-(5-methyl-1H-indazol-4-yl)-2-(((S)-1-methylpyrrolidin-2-yl)methoxy)quinazolin-4-yl)piperazin-1-yl)prop-2-en-1-one] |  | 136 nM | > 1000 nM | 
13 | C=CC(=O)N1CCN(c2nc(OC[C@@H]3CCCN3C)nc3c(OC4CC(F)(F)C4)c(-c4c(C)ccc5[nH]ncc45)c(Cl)cc23)[C@@H](C)C1 [Compound Z5] |  | 311 nM | > 10000 nM | 
14 | C=CC(=O)N1CCN(c2nc(OC[C@@H]3CCCN3C)nc3c(OC4CC(F)(F)C4)c(-c4c(C)ccc5[nH]ncc45)c(Cl)cc23)C[C@@H]1CC#N [Compound Z6, 2-((2S)-1-acryloyl-4-(6-chloro-8-(3,3-difluorocyclobutoxy)-7-(5-methyl-1H-indazol-4-yl)-2-(((S)-1-methylpyrrolidin-2-yl)methoxy)quinazolin-4-yl)piperazin-2-yl) acetonitrile] |  | 139 nM | > 5000 nM | 
15 | C=CC(=O)N1CCN(c2nc(OC[C@@H]3CCCN3C)nc3c(OC4CC4)c(-c4c(C)ccc5[nH]ncc45)c(Cl)cc23)CC1 [Compound Z7, 1-(4-(6-chloro-8-cyclopropoxy-7-(5-methyl-1H-indazol-4-yl)-2-(((S)-1-methylpyrrolidin-2-yl)methoxy)quinazolinpyridin-4-yl)piperazin-1-yl)prop-2-en-1-one] | 16 nM |  | > 1000 nM | 
16 | C=CC(=O)N1CCN(c2nc(OC[C@@H]3CCCN3C)nc3c(OC4CCC4)c(-c4c(C)ccc5[nH]ncc45)c(Cl)cc23)CC1 [Compound Z8, 1-(4-(6-chloro-8-cyclobutoxy-7-(5-methyl-1H-indazol-4-yl)-2-(((S)-1-methylpyrrolidin-2-yl)methoxy)quinazolinpyridin-4-yl)piperazin-1-yl)prop-2-en-1-one] |  | 70 nM | > 10000 nM | 
17 | C=CC(=O)N1CCN(c2nc(OC[C@@H]3CCCN3C)nc3c(OC4CCOC4)c(-c4c(C)ccc5[nH]ncc45)c(Cl)cc23)CC1 (stereo partly drawn) [Compound Z10A, 1-(4-(6-chloro-7-(5-methyl-1H-indazol-4-yl)-2-(((S)-1-methylpyrrolidin-2-yl)methoxy)-8-((tetrahydrofuran-3-yl)oxy)quinazolin-4-yl)piperazin-1-yl)prop-2-en-1-one] |  | 257 nM | > 10000 nM | 
18 | C=CC(=O)N1CCN(c2nc(OC3CCN(C)CC3)nc3c(OC4CC4)c(-c4c(C)ccc5[nH]ncc45)c(Cl)cc23)CC1 [Compound Z12, 1-(4-(6-chloro-8-cyclopropoxy-7-(5-methyl-1H-indazol-4-yl)-2-((1-methylpiperidin-4-yl)oxy)quinazolin-4-yl)piperazin-1-yl)prop-2-en-1-one] | 18 nM |  |  | IC50 [2]: > 10000 nM
19 | C=CC(=O)N1CCN(c2nc(OC[C@@H]3CCCN3C)nc3c(OC4CC4)c(-c4c(O)cccc4F)c(Cl)cc23)CC1 [Compound Z13] |  | 336 nM | > 1000 nM | 
20 | C=CC(=O)N1CCN(c2nc(OC[C@@H]3CCCN3C)nc3c(OC4CC4)c(-c4c(C)ccc5[nH]ncc45)c(Cl)cc23)[C@H](C)C1 [Compound Z27, 1-((3R)-4-(6-chloro-8-cyclopropoxy-7-(5-methyl-1H-indazol-4-yl)-2-(((S)-1-methylpyrrolidin-2-yl)methoxy)quinazolin-4-yl)-3-methylpiperazin-1-yl)prop-2-en-1-one] |  | 324 nM | > 1000 nM | 
21 | C=CC(=O)N1CCN(c2nc(OC[C@@H]3CCCN3C)nc3c(OC4CC4)c(-c4c(C)ccc5[nH]ncc45)c(Cl)cc23)[C@@H](C)C1 [Compound Z28, 1-((3S)-4-(6-chloro-8-cyclopropoxy-7-(5-methyl-1H-indazol-4-yl)-2-(((S)-1-methylpyrrolidin-2-yl)methoxy)quinazolin-4-yl)-3-methylpiperazin-1-yl)prop-2-en-1-one] |  | 11 nM | > 1000 nM | 
22 | C=CC(=O)N1CCN(c2nc(OC[C@@H]3CCCN3C)nc3c(OC4CC4)c(-c4c(C)ccc5[nH]ncc45)c(Cl)cc23)C[C@@H]1C [Compound Z29, 1-((2S)-4-(6-chloro-8-cyclopropoxy-7-(5-methyl-1H-indazol-4-yl)-2-((((S)-1-methylpyrrolidin-2-yl))methoxy)quinazolin-4-yl)-2-methylpiperazin-1-yl)prop-2-en-1-one] |  | 51 nM | > 10000 nM | 
23 | C=CC(=O)N1CCN(c2nc(OC[C@@H]3CCCN3C)nc3c(OC4CC4)c(-c4c(C)ccc5[nH]ncc45)c(Cl)cc23)C[C@H]1C [Compound Z30, 1-((2R)-4-(6-chloro-8-cyclopropoxy-7-(5-methyl-1H-indazol-4-yl)-2-((((S)-1-methylpyrrolidin-2-yl))methoxy)quinazolin-4-yl)-2-methylpiperazin-1-yl)prop-2-en-1-one] |  | 26 nM | > 5000 nM | 
24 | C=CC(=O)N1CCN(c2nc(OC[C@@H]3CCCN3C)nc3c(OC4CC4)c(-c4c(C)ccc5[nH]ncc45)c(Cl)cc23)CC1CC#N (some centres unmarked) [Compound Z31] |  | 34 nM | > 10000 nM | 
25 | C=CC(=O)N1CCN(c2nc(OC3CCN(C)C3)nc3c(OC4CC4)c(-c4c(C)ccc5[nH]ncc45)c(Cl)cc23)CC1 (centres unmarked) [Compound Z32] |  | 20 nM | > 1000 nM | 
